Experimental data published in patent US20260125375A1 (Pfizer Inc., priority 2022, published 2026).

Key:
C-CBL (46-435) = molecular target: T1, C-CBL (46-435) (Homo sapiens, UniProt P22681); test: Surface Plasmon Resonance (SPR) assay, binding affinity and kinetics, C-CBL; settings: SPR at 10° C., biotinylated C-CBL (46-435) on streptavidin chip; geometric mean; read-out: C-CBL SPR Kd (nM) GMean
T1 construct: N-terminal biotinylated WT CBL-B (36-427) and C-CBL (46-435) were captured on a streptavidin (SA) coated sensor chip
T1 sequence (P22681 46-435): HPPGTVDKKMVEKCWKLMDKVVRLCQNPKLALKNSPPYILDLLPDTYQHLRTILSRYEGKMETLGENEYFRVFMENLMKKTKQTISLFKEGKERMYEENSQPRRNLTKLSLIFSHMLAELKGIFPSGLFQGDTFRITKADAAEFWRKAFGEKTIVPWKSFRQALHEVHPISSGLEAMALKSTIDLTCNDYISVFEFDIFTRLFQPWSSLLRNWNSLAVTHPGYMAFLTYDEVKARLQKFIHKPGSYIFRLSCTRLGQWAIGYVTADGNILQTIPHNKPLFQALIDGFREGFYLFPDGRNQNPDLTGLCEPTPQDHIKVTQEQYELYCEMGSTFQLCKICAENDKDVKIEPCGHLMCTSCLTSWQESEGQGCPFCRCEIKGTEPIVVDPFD
Description: (§1) Surface Plasmon Resonance (SPR) Assay
(§2) The purpose of the SPR assay is to evaluate the binding affinity and kinetics of the compound of disclosure binding to CBL-B and C-CBL.
(§3) The binding affinity and kinetics of compound binding to CBL-B and C-CBL were measured by Surface Plasmon Resonance (SPR) using either Biacore S200, 8K or 8K+ (Cytiva, Marlborough, MA) instruments. N-terminal biotinylated WT CBL-B (36-427) and C-CBL (46-435) were captured on a streptavidin (SA) coated sensor chip to achieve approximately 5000 to 6000 RUs of surface density. Un-functionalized SA surfaces with no immobilized protein served as reference for binding kinetic analysis. All the samples were prepared in buffer consisting of 10 mM HEPES, 150 mM NaCl, 0.05% Tween-20, 5% glycerol, […], 2% DMSO, pH 7.2. The same buffer was used as the running buffer during the experiments. Compound binding kinetics were measured in either multi-cycle or single-cycle kinetic format.
(§4) Multi-cycle kinetic analysis (MCK): A two-fold, 10-point serial dilution of test compounds was set-up in a 96-well microplate (Greiner; Cat #650101) with a top concentration of either 10 μM or 100 μM. Binding kinetics was measured at 10° C. by injecting serial dilution of compounds onto both reference and CBL immobilized channels at a flow rate of 100 μL/min and association time of 90 seconds. Compound dissociation was monitored for >400 seconds during each cycle. No additional regeneration was used. DMSO calibration curve was obtained before and after compound analysis by injecting 0-4% of DMSO in assay buffer. A suitable compound with known affinity and kinetics was tested once in every experiment as a positive control to assess activity of the captured proteins on the surface.
(§5) Single-cycle kinetic analysis (SCK): A 3-fold, 6-point serial dilution of compounds was set-up in a deep 96-well microplate (Greiner Bio; Cat #780201) with the highest concentration of 1 μM (concentration range: […]). Binding kinetics was measured at 10° C. by injecting serial dilutions of compounds in increasing order onto reference as well as CBL immobilized channels at a flow rate of 100 μL/min and association time of 120 seconds. Compound dissociation was monitored for >5400 seconds. Two buffer blanks were also run in a single-cycle kinetics format before the compound run for double referencing. No additional regeneration was used. DMSO calibration curve was obtained before and after compound analysis by injecting 0-4% of DMSO in the assay buffer. A suitable compound with known affinity and kinetics was tested once in every experiment as a positive control to assess activity of the captured proteins on the surface.

C-CBL (residues 46-435) = molecular target: T2, C-CBL (residues 46-435) (Homo sapiens, UniProt P22681); test: Ligand Displacement Assay (LDA), HTRF competitive binding against BODIPY-labeled fluorescent tracer, C-CBL; settings: geometric mean of the number of tests, read-out: C-CBL Ki (nM) GMean
T2 construct: Purified CBL-B (residues 36-427) and C-CBL (residues 46-435) proteins from baculovirus-infected insect cells; made in house; host or cells: baculovirus-infected insect cells
T2 sequence (P22681 46-435): T1 sequence (P22681 46-435)
Outline: (§6)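 Terbium-streptavidin donor on BirA-biotinylated, AviTagged protein from baculovirus-infected insect cells; BODIPY tracer as acceptor. Compound titrations were three-fold and duplicated, […] with 2% DMSO final.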

WT CBL-B (36-427) = molecular target: T3, WT CBL-B (36-427) (Homo sapiens, UniProt Q13191); test: Surface Plasmon Resonance (SPR) assay, binding affinity and kinetics, CBL-B; settings: SPR at 10° C., biotinylated WT CBL-B (36-427) on streptavidin chip; geometric mean; read-out: CBL-B SPR Kd (nM) GMean
T3 construct: N-terminal biotinylated WT CBL-B (36-427) and C-CBL (46-435) were captured on a streptavidin (SA) coated sensor chip
Description: as §1, §2, §3, §4, §5

CBL-B (residues 36-427) = molecular target: T4, CBL-B (residues 36-427) (Homo sapiens, UniProt Q13191); test: Ligand Displacement Assay (LDA), HTRF competitive binding against BODIPY-labeled fluorescent tracer, CBL-B; settings: geometric mean of the number of tests, read-out: CBL-B Ki (nM) GMean
T4 construct: Purified CBL-B (residues 36-427) and C-CBL (residues 46-435) proteins from baculovirus-infected insect cells; made in house; host or cells: baculovirus-infected insect cells
Outline: as §6

SMILES	Kd (C-CBL (46-435)) [nM]	Ki (C-CBL (residues 46-435)) [nM]	Kd (WT CBL-B (36-427)) [nM]	Ki (CBL-B (residues 36-427)) [nM]
CN1CC[C@@H](Oc2nc(C(F)(F)F)cc3c(-c4cccc([C@H](c5nncn5C)C5CCC5)c4)n[nH]c23)C1 [Example J4, 3-{3-[(R)-cyclobutyl(4-methyl-4H-1,2,4-triazol-3-yl)methyl]phenyl}-7-{[(3R)-1-methylpyrrolidin-3-yl]oxy}-5-(trifluoromethyl)-1H-pyrazolo[3,4-c]pyridine]	145	83.6	3.7	9.2
Cn1cnnc1CC1(c2cccc(-c3n[nH]c4cnc(OC(F)F)cc34)c2)COC1 [Example B10, 5-(difluoromethoxy)-3-(3-{3-[(4-methyl-4H-1,2,4-triazol-3-yl)methyl]oxetan-3-yl}phenyl)-1H-pyrazolo[3,4-c]pyridine]	141	187	22.2	57.8
Cn1cnnc1[C@@H](c1cccc(-c2n[nH]c3c(CN[C@H]4CC[C@H](O)C4)nc(C(F)(F)F)cc23)c1)C1CCC1 [Example D86]	161	106	6.4	16.1
Cn1cnnc1CC1(c2cccc(-c3n[nH]c4c(OCCN)nc(C(F)(F)F)cc34)c2)COC1 [Example J3, 2-{[3-(3-{3-[(4-methyl-4H-1,2,4-triazol-3-yl)methyl]oxetan-3-yl}phenyl)-5-(trifluoromethyl)-1H-pyrazolo[3,4-c]pyridin-7-yl]oxy}ethan-1-amine]	53.6	76.3	3.2	16.7
Cn1cnnc1CC1(c2cccc(-c3n[nH]c4c(CN5C[C@H](F)[C@@H](F)C5)nc(C(F)(F)F)cc34)c2)COC1 [Example C68, 7-{[(3S,4S)-3,4-difluoropyrrolidin-1-yl]methyl}-3-(3-{3-[(4-methyl-4H-1,2,4-triazol-3-yl)methyl]oxetan-3-yl}phenyl)-5-(trifluoromethyl)-1H-pyrazolo[3,4-c]pyridine]	122	124	10.7	24.8
Cn1cnnc1CC1(c2cccc(-c3n[nH]c4c(CN[C@@H]5CCC(F)(F)C5)nc(C(F)(F)F)cc34)c2)COC1 [Example C60, (1R)-3,3-difluoro-N-{[3-(3-{3-[(4-methyl-4H-1,2,4-triazol-3-yl)methyl]oxetan-3-yl}phenyl)-5-(trifluoromethyl)-1H-pyrazolo[3,4-c]pyridin-7-yl]methyl}cyclopentan-1-amine]	41.7	57.5	5.1	10.7
CC(CN)c1nc(C(F)(F)F)cc2c(-c3cccc(C4(Cc5nncn5C)COC4)c3)n[nH]c12 (single isomer, unassigned) [Example K7, (2ξ)-2-[3-(3-{3-[(4-methyl-4H-1,2,4-triazol-3-yl)methyl]oxetan-3-yl}phenyl)-5-(trifluoromethyl)-1H-pyrazolo[3,4-c]pyridin-7-yl]propan-1-amine]	94.9	97.8	8	26.6
C[C@@H]1CN(Cc2nc(C(F)(F)F)cc3c(-c4cccc(C5(Cc6nncn6C)COC5)c4)n[nH]c23)CCO1 [Example C72, 7-{[(2R)-2-methylmorpholin-4-yl]methyl}-3-(3-{3-[(4-methyl-4H-1,2,4-triazol-3-yl)methyl]oxetan-3-yl}phenyl)-5-(trifluoromethyl)-1H-pyrazolo[3,4-c]pyridine]	63.1	83.3	2.3	18.6
Cc1cc2c(-c3cccc([C@H](c4nncn4C)C4CCC4)c3)n[nH]c2cn1 [Example A6, 3-{3-[(R)-cyclobutyl(4-methyl-4H-1,2,4-triazol-3-yl)methyl]phenyl}-5-methyl-1H-pyrazolo[3,4-c]pyridine]	882	525	21.4	51.5
CC(N[C@H]1CCOC1)c1nc(C(F)(F)F)cc2c(-c3cccc(C4(Cc5nncn5C)COC4)c3)n[nH]c12 (single isomer, unassigned) [Example C82]	17	23.3	2.3	5.2
C[C@@H]1CN(Cc2nc(C(F)(F)F)cc3c(-c4cccc([C@H](c5nncn5C)C5CCC5)c4)n[nH]c23)CCO1 [Example C113, 3-{3-[(R)-cyclobutyl(4-methyl-4H-1,2,4-triazol-3-yl)methyl]phenyl}-7-{[(2R)-2-methylmorpholin-4-yl]methyl}-5-(trifluoromethyl)-1H-pyrazolo[3,4-c]pyridine]	83.6	233	4.8	27.1
C[C@@H]1CCCN(Cc2nc(C(F)(F)F)cc3c(-c4cccc([C@H](c5nncn5C)C5CCC5)c4)n[nH]c23)C1 [Example C108, 3-{3-[(R)-cyclobutyl(4-methyl-4H-1,2,4-triazol-3-yl)methyl]phenyl}-7-{[(3R)-3-methylpiperidin-1-yl]methyl}-5-(trifluoromethyl)-1H-pyrazolo[3,4-c]pyridine]	148	630	5.5	79.4
C[C@H](c1nc(C(F)(F)F)cc2c(-c3cccc(C4(Cc5nncn5C)COC4)c3)n[nH]c12)N1CCCC1 (single isomer, unassigned) [Example D48]	74.6	44.9	9.3	16.1
Cn1cnnc1[C@@H](c1cccc(-c2n[nH]c3c(CN[C@@H]4CCC[C@H]4O)nc(C(F)(F)F)cc23)c1)C1CCC1 [Example C121, (1R,2R)-2-({[3-{3-[(R)-cyclobutyl(4-methyl-4H-1,2,4-triazol-3-yl)methyl]phenyl}-5-(trifluoromethyl)-1H-pyrazolo[3,4-c]pyridin-7-yl]methyl}amino)cyclopentan-1-ol]	113	111	3.3	18.9
CC(N)c1nc(C(F)(F)F)cc2c(-c3cccc(C4(Cc5nncn5C)COC4)c3)n[nH]c12 (single isomer, unassigned) [Example K16, (1ξ)-1-[3-(3-{3-[(4-methyl-4H-1,2,4-triazol-3-yl)methyl]oxetan-3-yl}phenyl)-5-(trifluoromethyl)-1H-pyrazolo[3,4-c]pyridin-7-yl]ethan-1-amine]	216	140	15.7	32
CN(C)Cc1nc(C(F)(F)F)cc2c(-c3cccc(C4(Cc5nncn5C)COC4)c3)n[nH]c12 [Example C51, N,N-dimethyl-1-[3-(3-{3-[(4-methyl-4H-1,2,4-triazol-3-yl)methyl]oxetan-3-yl}phenyl)-5-(trifluoromethyl)-1H-pyrazolo[3,4-c]pyridin-7-yl]methanamine]	182	115	17.8	22
